Molecules are shown by their SMILES.

Format in all cases: in vivo
For assay [1], the system named is Vitis kiusiana Momiyama. As to the kind of experiment: Bud flush of dormant branch cuttings of wild grape. On the procedure: Matured branches of a Japanese wild grape Vitis kiusiana Momiyama, in which rooting of cuttings is difficult (Mochioka et al., Plant Tissue Culture 13: 139-145, 1996; Journal of ASEV JAPAN 13: 2-8, 2002) and dormancy of buds is deep (Mochioka et al., Journal of Japanese Society for Horticultural Science, 65: 49-54, 1996) were collected in January during the dormant stage, and stored under refrigeration in such a manner that they were not dried. On March 11, they were prepared to have one bud. After each cutting base was immersed in a 3% aqueous solution of D-psicose (supplemented with a spreading agent, Approach BI at 0.2%) for 24 hours, on the following day March 12, it was planted in a Vermiculite bed and placed in a temperature-controlled chamber at 25° C. and 16-hour day length, and the bud flush rate with time was measured. The timing of bud flush was determined to be a time when bud scale leaves fall off and about 50% of the tomentum that protects the bud appears. In a control plot, the cutting base was immersed in distilled water supplemented with 0.2% Approach BI for 24 hours, and then, subjected to the same treatment as described above.
In the survey of the bud flush rate, 9 cuttings were used for each plot and the procedure was repeated three times and an average was obtained.

In assay [2] the test system is Arabidopsis thaliana Lan dsberg erecta (LER). Nature of the assay: Germination of Arabidopsis thaliana with 8 ketoses. To be noted: 100 mM aqueous solution. On the procedure: An effect of 8 types of ketoses on germination of Arabidopsis thaliana LER series which was an experimental plant was examined.
Two sheets of filter paper were placed in a dish with a diameter of 3.5 cm, and 30 seeds of Arabidopsis thaliana Lan dsberg erecta (LER) were sown per dish, and 0.5 mL of a treatment liquid was poured therein. Then, the dishes were placed in an environment control chamber under the condition of a constant temperature of 25° C. and 24-hour day length (fluorescent lamp, 70 μmol/m^2/s). After the sowing, a survey was carried out with regard to the number of seeds that germinated at 24-hour interval. As the treatment liquid, 100 mM, 10 mM and 1 mM aqueous solutions of any of D-fructose, D-psicose, D-tagatose, D-sorbose, L-fructose, L-psicose, L-tagatose and L-sorbose, and distilled water were used. The procedure was repeated three times for the respective treatment liquids.

Assay [3] concerns cherry tomato plant “mini carol”. As to the kind of experiment: Hydroponic growth of cherry tomato with D-psicose 0.001-0.03%. The note with it: for number of flower clusters compared with the control plot: control plot 2.0. The protocol:
On Jun. 10, 2003, a cherry tomato plant “mini carol” was transplanted for permanent planting to a hydroponic apparatus, and from 7 days after the permanent planting, 4 treated plots (0%, 0.001%, 0.01% and 0.03%) were prepared by adding D-psicose to a nutrient culture solution. A survey was carried out with regard to the growth at […] after the treatment (July 22). […] The fresh weight was larger in the plot of 0.001%, and was smaller in the plot of 0.03% compared with the control plot. When the fresh weight was seen according to the parts, roots and leaves were larger in the plot of 0.001%.

The test system of assay [4] is strawberry plant (variety: “Sachinoka”). Nature of the assay: Spraying of sugar solution during soilless culture of strawberry. To be noted: 0.2% (w/v) sprayed weekly. On the procedure: In the process of cultivation of strawberry, an effect of spraying D-psicose was examined.
A strawberry plant (variety: “Sachinoka”) was used in an experiment. Strawberry seedlings were transplanted for permanent planting to a mixed culture medium of rockwool and peat moss, and then, by using Otsuka A prescription hydroponic nutrient solution, soilless culture was carried out in a glass house. During the cultivation, on a weekly basis, water, a 0.2% (w/v) D-glucose solution or a 0.2% (w/v) D-psicose solution was sprayed onto the whole plant. As for the number of strawberry plants, 17, 19 and 18 plants were used for the groups, respectively, and permanent planting was carried out on Sep. 24, 2004, and spraying was started from Oct. 22, 2004. A survey was carried out with regard to the growth conditions, the yield of fruits, the quality of fruits and the like by Mar. 7, 2005.

Regarding `O=C(CO)[C@H](O)[C@H](O)[C@H](O)CO` [D-psicose], in assay [1] (3% aqueous solution 24 hours, whole period), the “bud flush rate compared with control plot” value was “higher”. Besides, the “timing of bud flush” value in assay [1] (cutting base immersed in 3% aqueous solution 24 hours, control mid-April) was “from late March”. The inhibition of germination result in assay [2] is “clearly inhibited”. In assay [3] (0.001%), the “fresh weight compared with the control plot” value is “larger”, the “maximum root length compared with the control plot” value is on record as “slightly longer”, the “number of leaves compared with the control plot” value was “slightly larger” and the “number of flower clusters compared with the control plot” value is “slightly larger”. Also, in assay [3] (0.001% in nutrient culture solution), the “stem length compared with the control plot” value is recorded as “slightly longer”. In addition, in assay [3] (0.01%), the “maximum root length compared with the control plot” value is on record as “slightly shorter”, the “stem diameter compared with the control plot” value is “slightly larger” and the “stem length compared with the control plot” value is “slightly longer”. Further, in assay [3] (0.03%), the “fresh weight compared with the control plot” value is given as “smaller”, the “maximum root length compared with the control plot” value is recorded as “slightly shorter”, the “number of leaves compared with the control plot” value is “slightly smaller” and the “stem diameter compared with the control plot” value is recorded as “slightly smaller”. In assay [3] (0.03%), the “stem length compared with the control plot” value was “slightly shorter” and the “number of flower clusters compared with the control plot” value is reported as “slightly smaller”. Besides, in assay [4], the “acidity in the fruit” value is “improvement”; the “content of vitamin C in the fruit” value was “improvement”; the flower-bud formation result was “promotion”; the “growth and total yield” value is given as “no significant difference”. Also, the harvesting time entry in assay [4] is listed as “acceleration”.
